Data on 5 compounds can be found in patent publication EP0371438B1, “3,5-Di-tertiary-butyl-4-hydroxyphenyl-1,3,4-thiadiazoles, and oxadiazoles and 3,5-di-tertiary-butyl-4-hydroxiphenyl- 1,2,4-thiadiazoles, -oxadiazoles as antiinflammatory agents” (WARNER-LAMBERT COMPANY, priority 1988, dated 1990).

The subject of one data set is cyclooxygenase. Put plainly: ARBC whole cell cyclooxygenase assay (PGF2α formation, RIA). As to conditions: IC50 for PGF2α inhibition; RBL-1 cells, calcium ionophore A23187. Format: cell-based, rat. The protocol: (§1) ARBL/ARBC Whole Cell 5-Lipoxygenase and Cyclooxygenase Assays
(§2) The rat basophilic leukemia cell line (RBL-1) was obtained from the American Type Culture Collection (Rockville, MD).
(§3) Radioimmunoassay (RIA) kits of LTB₄ and [drawing 16] were obtained from Amersham (Arlington Heights, IL) and Seragen (Boston, MA), respectively.
(§4) RBL-1 cells are grown in suspension culture in Eagle's minimum essential medium supplemented with 12% fetal bovine serum at 37°C in an incubator supplied with air-5% carbon dioxide. Cells are harvested by centrifugation. They are washed with cold phosphate buffered saline pH 7.4 (PBS; NaCl, 7.1 g; Na₂HPO₄, 1.15 g; KH₂PO₄, 0.2 g; and KCl, 0.2 g/l). Cells are finally suspended in PBS containing 1.0 mM calcium at a density of 2x10⁶ cells/ml. Cells are incubated with and without test agent (in DMSO) (1% DMSO is without effect on arachidonic acid metabolism) for ten minutes at room temperature. Calcium ionophore A23187 (5 »M) is added and cells are incubated for seven minutes at 37°C. The reaction is stopped by chilling the tubes on ice for ten minutes. Cells are separated by centrifugation and the supernatant is stored at -20°. Aliquots (100 »l) are analyzed for LTB₄ and [drawing 17] using radioimmunoassay kits as provided by the supplier.
(§5) Table 1 contains biochemical data obtained from this whole cell assay as IC₅₀s which are calculated as the amount of test compound causing 50% inhibition of LTB₄ or [drawing 18] formation.

A further data set has as its target T1, 5-lipoxygenase (Rattus norvegicus, UniProt P12527).
T1 construct: host or cells: RBL-1 (rat basophilic leukemia)
T1 sequence (P12527 1-673): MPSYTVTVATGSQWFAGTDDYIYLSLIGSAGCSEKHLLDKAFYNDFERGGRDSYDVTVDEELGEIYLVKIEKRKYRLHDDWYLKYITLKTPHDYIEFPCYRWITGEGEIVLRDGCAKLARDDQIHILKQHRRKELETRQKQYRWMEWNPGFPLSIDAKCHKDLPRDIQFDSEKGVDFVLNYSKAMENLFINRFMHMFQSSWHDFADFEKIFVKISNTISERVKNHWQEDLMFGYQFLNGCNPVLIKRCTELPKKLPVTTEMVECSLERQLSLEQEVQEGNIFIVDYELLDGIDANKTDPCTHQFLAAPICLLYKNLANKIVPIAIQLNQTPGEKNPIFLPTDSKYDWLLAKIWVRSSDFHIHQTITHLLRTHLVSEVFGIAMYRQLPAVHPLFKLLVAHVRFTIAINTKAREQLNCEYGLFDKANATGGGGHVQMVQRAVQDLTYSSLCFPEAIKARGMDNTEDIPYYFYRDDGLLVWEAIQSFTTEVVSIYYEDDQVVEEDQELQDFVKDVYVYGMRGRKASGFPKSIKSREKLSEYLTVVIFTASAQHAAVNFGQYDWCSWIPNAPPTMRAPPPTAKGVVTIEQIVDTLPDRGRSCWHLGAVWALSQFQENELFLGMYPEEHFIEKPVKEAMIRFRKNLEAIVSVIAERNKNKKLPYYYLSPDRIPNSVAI
The data set can be described thus: ARBL whole cell 5-lipoxygenase assay (LTB4 formation, RIA). Format: cell-based. As to conditions: IC50 for LTB4 inhibition; RBL-1 cells, calcium ionophore A23187. The protocol:
as §1, §2, §3, §4, §5

Data set [1] concerns Mycobacterium - Induced Rat Footpad Edema. Put plainly: Mycobacterium-induced rat footpad edema assay (MFE). Format: in vivo. Conditions: PO, swelling 72 hours after injection, compound tested as its sodium salt, read-out: MFE ID₄₀. The method, then: Mycobacterium - Induced Rat Footpad Edema Assay (MFE): Protocol Mycobacterium butyricum (5 mg/ml) is suspended in paraffin oil by sonication for ten minutes in an ice bath. Footpad edema is induced on Day 0 by injecting 0.1 ml of the Mycobacterium mixture into the left hindpaw of lightly anesthetized rats. Swelling in the injected hindpaw is determined by mercury plethysmography 72 hours after injection. Groups of rats are treated with test compounds (suspended in 0.5% hydroxypropyl methylcellulose with 0.2% Tween-80) or vehicle one hour before Mycobacterium injection and on Days 1 and 2. Inhibition of swelling is determined by comparing the change in hindpaw volume in compound-and vehicle-treated rats. An ID₄₀ (the dose at which swelling is inhibited by 40%) is calculated by probit analysis.

For the next data set, the system named is gastric ulcers. The data set can be described thus: Gastric ulcerogenicity (UD). The class given is in vivo, Male outbred Wistar rats. Conditions: PO, dose which produces a 50% occurrence of ulcers in rats; result given @ 200; compound tested as its sodium salt. The method, then:
Gastric Ulcerogenicity (UD): Protocol
Male outbred Wistar rats (100-250 gms) are fasted for 24 hours. After fasting, test compounds are administered orally (in 2 ml/kg of 0.5% hydroxypropyl methylcellulose) and the rats are denied access to food and water for six more hours. The rats are then sacrificed with CO₂ so that the stomachs can be removed, opened along the greater curvature, and evaluated for the presence of gastric ulcers. Results are expressed as the percent of rats with gastric ulcers at a given dose or as the UD₅₀ (the dose which causes ulcers in 50% of the rats).

Data set [2] has as its system Carrageenan-Induced Rat Foot Paw Edema. The data set can be described thus: Carrageenan-induced rat foot paw edema-2 (CFE-2) assay. Format: in vivo. Conditions: 5 h, PO, dosed one hour before carrageenan, edema measured five hours after, compound tested as its sodium salt, read-out: CFE-2 ID₄₀. The method, then:
Carrageenan-Induced Rat Foot Paw Edema-2 (CFE-2) Assay: Protocol
Carrageenan solution (1% w/v) is prepared by dissolving 100 mg carrageenan (Marine Colloidal Div., Springfield, NJ) in 10 ml of sterile saline (0.9%) solution (Travenol). The solution is vortexed for 30 to 45 minutes. Animals are dosed with compound one hour before carrageenan challenge. Foot paw edema is induced by injecting 0.10 ml of the 1% carrageenan subcutaneously into the plantar portion of the right hind paw of each rat under light anesthesia. Initial foot paw volume is measured immediately following carrageenan challenge using mercury plethysmography (Buxco Electronics). Edema is measured five hours after carrageenan. The difference between the five-hour and the initial paw volume is expressed as delta edema. The delta edema for each test group of animals is used to calculate the percent inhibition of edema achieved by the compound at the test dose compared with the vehicle control group. The ID₄₀ (the dose at which swelling is inhibited by 40%) is calculated by probit analysis for the dose at which 40 percent inhibition occurs.
In general terms: In the carrageenan paw model, swelling and tenderness develop within hours.

As a reminder, the IC50 is the concentration at which inhibition is half-maximal. For `CC(C)(C)c1cc(-c2n[nH]c(=O)o2)cc(C(C)(C)C)c1O` [Example 7, 5-[3,5-Bis(1,1-dimethylethyl)-4-hydroxyphenyl]-1,3,4-oxadiazol-2(3H)-one], the results for the IC50 with cyclooxygenase and at 5-lipoxygenase were 2.5 µM and 1.4 µM, respectively.

With `CC(C)(C)c1cc(-c2n[nH]c(=S)o2)cc(C(C)(C)C)c1O` [Example 8, 5-[3,5-Bis(1,1-dimethylethyl)-4-hydroxyphenyl]-1,3,4-oxadiazole-2(3H)-thione], the values for the IC50 with cyclooxygenase and at 5-lipoxygenase were 8 µM and 10 µM, respectively.

In the case of `CC(C)(C)c1cc(-c2n[nH]c(=O)[nH]2)cc(C(C)(C)C)c1O` [Example 15, 5-[3,5-Bis(1,1-dimethylethyl)-4-hydroxyphenyl]-2,4-dihydro-3H-1,2,4-triazol-3-one], the IC50 was determined as 5.5 µM with cyclooxygenase and 4.5 µM on 5-lipoxygenase.

Turning to `CC(C)(C)c1cc(-c2nnc(N)s2)cc(C(C)(C)C)c1O` [Example 10, 4-(5-Amino-1,3,4-thiadiazol-2-yl)-2,6-bis(1,1-dimethylethyl)phenol], the IC50 in the data set on cyclooxygenase amounted to 0.13 µM; on 5-lipoxygenase, 1.4 µM.

For `CC(C)(C)c1cc(-c2nnc(S)s2)cc(C(C)(C)C)c1O` [Example 4, 5-[3,5-Bis(1,1-dimethylethyl)-4-hydroxyphenyl]-1,3,4-thiadiazole-2(3H)-thione], the IC50 was determined as 0.86 µM in the data set with cyclooxygenase and 5.7 µM on 5-lipoxygenase. Besides, the ED40 in data set [1] was found to be 3.2 mg/kg; in data set [2] it was 1.9 mg/kg. Besides, the UD₅₀ result in the data set with gastric ulcers is “N @ 200 (N is 0% of rats having ulcers at 200 mg.)”.
